Test results: article PMC4410085 (Bioorganic & medicinal chemistry, 2015)

Experiments:
Bovine brain tubulin = assay: Tubulin assembly assay; format: biochemical; conditions: read-out: Inhibition tubulin assembly IC50; ± SD; purified bovine brain tubulin
A-10 cells = assay: Loss of cellular microtubules, indirect immunofluorescence; format: cell-based; conditions: result in words
PDGFR-β = PDGFR-β (Homo sapiens, UniProt P09619); assay: Phosphotyrosine ELISA cytoblot, PDGFR-β; format: cell-based; conditions: PDGFR-β expressing cells, versus sunitinib
PDGFR-β, sequence (P09619 33-1106): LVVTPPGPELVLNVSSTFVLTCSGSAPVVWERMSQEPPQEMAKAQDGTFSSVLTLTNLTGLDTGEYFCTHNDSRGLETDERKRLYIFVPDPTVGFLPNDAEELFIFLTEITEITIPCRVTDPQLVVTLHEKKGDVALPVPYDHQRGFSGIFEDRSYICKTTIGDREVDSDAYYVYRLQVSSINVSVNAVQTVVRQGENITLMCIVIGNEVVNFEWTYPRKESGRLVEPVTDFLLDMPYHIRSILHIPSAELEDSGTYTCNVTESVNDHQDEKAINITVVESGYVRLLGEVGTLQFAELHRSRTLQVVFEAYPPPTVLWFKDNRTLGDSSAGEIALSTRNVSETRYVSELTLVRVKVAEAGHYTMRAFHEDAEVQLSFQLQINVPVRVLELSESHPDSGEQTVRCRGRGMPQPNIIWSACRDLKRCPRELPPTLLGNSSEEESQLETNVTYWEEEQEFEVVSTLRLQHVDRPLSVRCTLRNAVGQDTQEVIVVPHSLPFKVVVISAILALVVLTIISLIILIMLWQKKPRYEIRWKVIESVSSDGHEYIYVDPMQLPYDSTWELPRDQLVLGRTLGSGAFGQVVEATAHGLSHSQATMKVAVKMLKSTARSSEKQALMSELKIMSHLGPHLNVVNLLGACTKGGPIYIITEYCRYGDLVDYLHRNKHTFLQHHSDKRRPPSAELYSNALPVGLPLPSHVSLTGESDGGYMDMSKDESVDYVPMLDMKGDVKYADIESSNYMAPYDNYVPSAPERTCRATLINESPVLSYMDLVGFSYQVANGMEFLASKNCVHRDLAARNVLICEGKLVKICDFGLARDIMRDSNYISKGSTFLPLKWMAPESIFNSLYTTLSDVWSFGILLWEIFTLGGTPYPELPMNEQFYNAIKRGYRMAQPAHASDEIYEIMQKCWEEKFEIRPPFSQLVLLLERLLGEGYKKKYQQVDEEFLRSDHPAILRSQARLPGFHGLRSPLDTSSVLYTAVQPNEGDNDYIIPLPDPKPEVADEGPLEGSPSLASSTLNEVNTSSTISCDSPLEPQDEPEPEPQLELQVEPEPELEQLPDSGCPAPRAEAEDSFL

Compound	IC50 (Bovine brain tubulin) [µM]	effect on cellular microtubules (A-10 cells)	fold better than sunitinib, PDGFR-β (PDGFR-β)
COc1ccc(/C=C\c2cc(OC)c(OC)c(OC)c2)cc1O [CA-4]	1 ± 0.09	–	–
COc1ccc(N(C)c2nc(C)nc3oc(C)cc23)c(OC)c1 [Compound 2, N-(2,4-dimethoxyphenyl)-N,2,6-trimethylfuro[2,3-d]pyrimidin-4-amine]	–	dose-dependent loss of cellular microtubules	–
COc1ccc(N(C)c2nc(C)nc3oc(C)cc23)cc1OC [Compound 3, N-(3,4-dimethoxyphenyl)-N,2,6-trimethylfuro[2,3-d]pyrimidin-4-amine]	–	dose-dependent loss of cellular microtubules	–
Cc1nc(N(C)c2ccc3c(c2)CCO3)c2cc(C)oc2n1 [Compound 6, N-(2,3-dihydro-1-benzofuran-5-yl)-N,2,6-trimethylfuro[2,3-d]pyrimidin-4-amine]	–	dose-dependent loss of cellular microtubules	about 4 fold
Cc1nc(N(C)c2ccc3occc3c2)c2cc(C)oc2n1 [Compound 7, N-1-benzofuran-5-yl-N,2,6-trimethylfuro[2,3-d]pyrimidin-4-amine]	–	dose-dependent loss of cellular microtubules	about 4 fold
COc1ccc2c(c1)CCN2c1nc(C)nc2oc(C)cc12 [Compound 8, 4-(5-methoxyindolin-1-yl)-2,6-dimethylfuro[2,3-d]pyrimidine]	–	no effect on cellular microtubules	–
COc1ccc2c(c1)CCCN2c1nc(C)nc2oc(C)cc12 [Compound 10, 4-(6-methoxy-3,4-dihydroquinolin-1(2H)-yl)-2,6-dimethylfuro[2,3-d]pyrimidine]	–	dose-dependent loss of cellular microtubules	–
CCOc1ccc(N(C)c2nc(C)nc3oc(C)cc23)cc1 [Compound 12, N-(4-ethoxyphenyl)-N,2,6-trimethylfuro[2,3-d]pyrimidin-4-amine]	–	dose-dependent loss of cellular microtubules	–
